# Laboratory results from the supplement of paper PMC10307832.
# Experiments:
# Assay in all cases: relative viability (nuclei count vs DMSO), 5 days (fraction); higher = more cells survive
# [1] = compound: Cc1cc(Nc2cc(N3CCN(C)CC3)nc(Sc3ccc(NC(=O)C4CC4)cc3)n2)n[nH]1 [Tozasertib] + CS(=O)(=O)CCNCc1ccc(-c2ccc3ncnc(Nc4ccc(OCc5cccc(F)c5)c(Cl)c4)c3c2)o1 [Lapatinib] (partner 2 µM)
# Method in brief: (§1)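 Lung cancer cell lines, seeded in 1536-well plates, were treated the following day by pin tool with a single drug or with five library-drug doses (not always all listed) in √10 steps on top of a fixed anchor-drug dose. Cells were fixed and nuclei stained in one step after 5 days, and nuclei were counted. Relative viability is the nuclei count for treated wells divided by that for vehicle wells, reported as medians of duplicate plates.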
# [2] = compound: Cc1cc(Nc2cc(N3CCN(C)CC3)nc(Sc3ccc(NC(=O)C4CC4)cc3)n2)n[nH]1 [Tozasertib] + CC(C)C[C@H](NC(=O)[C@H](Cc1ccccc1)NC(=O)c1cnccn1)B(O)O [Bortezomib] (partner 0.002 µM)
# Method in brief: as §1
# [3] = compound: Cc1cc(Nc2cc(N3CCN(C)CC3)nc(Sc3ccc(NC(=O)C4CC4)cc3)n2)n[nH]1 [Tozasertib] + CS(=O)(=O)N1CCN(Cc2cc3nc(-c4cccc5[nH]ncc45)nc(N4CCOCC4)c3s2)CC1 [Pictilisib] (partner 1 µM)
# Method in brief: as §1
# [4] = compound: Cc1cc(Nc2cc(N3CCN(C)CC3)nc(Sc3ccc(NC(=O)C4CC4)cc3)n2)n[nH]1 [Tozasertib] + COc1cc2c(Oc3ccc(NC(=O)C4(C(=O)Nc5ccc(F)cc5)CC4)cc3F)ccnc2cc1OCCCN1CCOCC1 [Foretinib] (partner 0.25 µM)
# Method in brief: as §1
# [5] = compound: Cc1cc(Nc2cc(N3CCN(C)CC3)nc(Sc3ccc(NC(=O)C4CC4)cc3)n2)n[nH]1 [Tozasertib] + Cc1nc(NC(=O)N2CCC[C@H]2C(N)=O)sc1-c1ccnc(C(C)(C)C(F)(F)F)c1 [Alpelisib] (partner 2 µM)
# Method in brief: as §1
# [6] = compound: Cc1cc(Nc2cc(N3CCN(C)CC3)nc(Sc3ccc(NC(=O)C4CC4)cc3)n2)n[nH]1 [Tozasertib] + CC1(C)CCC(c2ccc(Cl)cc2)=C(CN2CCN(c3ccc(C(=O)NS(=O)(=O)c4ccc(N[C@H](CCN5CCOCC5)CSc5ccccc5)c(S(=O)(=O)C(F)(F)F)c4)cc3)CC2)C1 [Navitoclax] (partner 0.5 µM)
# Method in brief: as §1
# [7] = compound: Cc1cc(Nc2cc(N3CCN(C)CC3)nc(Sc3ccc(NC(=O)C4CC4)cc3)n2)n[nH]1 [Tozasertib] + C[C@@H](Oc1cc(-c2cnn(C3CCNCC3)c2)cnc1N)c1c(Cl)ccc(F)c1Cl [Crizotinib] (partner 1 µM)
# Method in brief: as §1
# [8] = compound: Cc1cc(Nc2cc(N3CCN(C)CC3)nc(Sc3ccc(NC(=O)C4CC4)cc3)n2)n[nH]1 [Tozasertib] + O=C(c1cc(Cc2n[nH]c(=O)c3ccccc23)ccc1F)N1CCN(C(=O)C2CC2)CC1 [Olaparib] (partner 8 µM)
# Method in brief: as §1
# [9] = compound: Cc1cc(Nc2cc(N3CCN(C)CC3)nc(Sc3ccc(NC(=O)C4CC4)cc3)n2)n[nH]1 [Tozasertib] + C[C@]1(O)C[C@@H](c2nc(-c3ccc4ccc(-c5ccccc5)nc4c3)c3c(N)nccn32)C1 [Linsitinib] (partner 1 µM)
# Method in brief: as §1
# [10] = compound: Cc1cc(Nc2cc(N3CCN(C)CC3)nc(Sc3ccc(NC(=O)C4CC4)cc3)n2)n[nH]1 [Tozasertib]
# Method in brief: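 Five library-drug doses spaced by √10 were pinned onto vehicle-anchored 1536-well plates of lung cancer cell lines that had been kept overnight at 37 °C. Cells went 5 days without medium change, then were fixed, permeabilised and Hoechst-stained together, imaged at 4× and counted by MetaXpress. Viability is the ratio of treated-well to vehicle-well nuclei, taken as a median over plates. Plates required control CV below 25% and at least one doubling.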
cell line,measurement,setting,value
NCI-H1299,relative viability,[1]; first compound 0.004 µM,1.03
same,relative viability,[1]; first compound 0.01265 µM,0.947
same,relative viability,[1]; first compound 0.1265 µM,0.703
same,relative viability,[2]; first compound 0.004 µM,1.07
same,relative viability,[2]; first compound 0.01265 µM,1.01
same,relative viability,[2]; first compound 0.04 µM,1.02
same,relative viability,[2]; first compound 0.1265 µM,1.03
same,relative viability,[3]; first compound 0.004 µM,0.951
same,relative viability,[3]; first compound 0.01265 µM,0.808
same,relative viability,[3]; first compound 0.04 µM,0.75
same,relative viability,[3]; first compound 0.1265 µM,0.615
same,relative viability,[4]; first compound 0.004 µM,1.17
same,relative viability,[4]; first compound 0.01265 µM,1.07
same,relative viability,[4]; first compound 0.04 µM,1.08
same,relative viability,[4]; first compound 0.1265 µM,0.499
same,relative viability,[5]; first compound 0.004 µM,1.08
same,relative viability,[5]; first compound 0.01265 µM,1.13
same,relative viability,[5]; first compound 0.04 µM,1.04
same,relative viability,[5]; first compound 0.1265 µM,1.05
same,relative viability,[6]; first compound 0.004 µM,1.1
same,relative viability,[6]; first compound 0.01265 µM,1.04
same,relative viability,[6]; first compound 0.04 µM,1.06
same,relative viability,[6]; first compound 0.1265 µM,1.07
same,relative viability,[7]; first compound 0.004 µM,0.998
same,relative viability,[7]; first compound 0.01265 µM,0.996
same,relative viability,[7]; first compound 0.04 µM,0.952
same,relative viability,[7]; first compound 0.1265 µM,0.761
same,relative viability,[8]; first compound 0.004 µM,0.982
same,relative viability,[8]; first compound 0.01265 µM,0.939
same,relative viability,[8]; first compound 0.04 µM,0.943
same,relative viability,[8]; first compound 0.1265 µM,0.961
same,relative viability,[9]; first compound 0.004 µM,0.952
same,relative viability,[9]; first compound 0.01265 µM,0.979
same,relative viability,[9]; first compound 0.04 µM,0.988
same,relative viability,[9]; first compound 0.1265 µM,0.597
same,relative viability,[10]; 0.004 µM,1.04
same,relative viability,[10]; 0.01265 µM,1.02
same,relative viability,[10]; 0.04 µM,1.01
same,relative viability,[10]; 0.1265 µM,1.02
